Test [1] concerns the target T1, human RORγt (Ligand Binding Domain) (Homo sapiens, UniProt P51449).
T1 construct: purchased Crelux (Planegg, Germany) batch no PC5032-1
T1 sequence (P51449 269-508 limits assumed): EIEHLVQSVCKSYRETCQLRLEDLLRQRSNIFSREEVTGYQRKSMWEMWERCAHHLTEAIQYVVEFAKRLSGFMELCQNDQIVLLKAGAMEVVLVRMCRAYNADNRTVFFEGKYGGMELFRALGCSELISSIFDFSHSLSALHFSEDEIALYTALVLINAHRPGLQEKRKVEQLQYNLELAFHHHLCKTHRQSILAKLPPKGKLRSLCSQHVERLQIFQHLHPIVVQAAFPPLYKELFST
Nature of the test: Fluorescence Polarization (FP) Assay. Conditions: 100 nM human RORγt LBD, 25 nM TAMRA probe, values are activity range bounds. The method, boiled down:
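Binding to the RORγt ligand-binding domain was followed by FP. Displacement of a TAMRA-tagged RORγt ligand tracer (910 g/mol) was measured, with DMSO-only wells as negative control.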

The target in test [2] is T2, ligand binding domain of human RORγ (Homo sapiens, UniProt P51449).
T2 construct: host or cells: HEK293t
T2 sequence (P51449 269-508 limits assumed): T1 sequence (P51449 269-508 limits assumed)
The experiment in a line: RORγ Reporter Assay (Gal4). It counts as cell-based. Conditions: for inhibition at 1 µM: HEK-293T, 1 μM test compound, HEK293t RORγ reporter cells, 24 hour, read-out: Gal4 activity range @ 1 μM (% inhibition); for Gal4 activity range @ 0.1 μM (% inhibition): RORγ Reporter Assay (Gal4), HEK293t reporter cells, compound at 0.1 μM, values are activity range bounds. The method, then: The activity of the compounds was evaluated using a Fluorescence Polarization (FP) Assay and, RORγ Reporter assay (also referred to as Gal4 assay). The FP assay is an in vitro assay monitoring binding within the ligand binding pocket. The RORγ and the Th17 assays (another suitable assay) are both cell-based assays monitoring functional activity of the compound assayed.
RORγ Reporter Assay (Gal4)
Cell-based RORγ functional assays were performed using a commercially available assay product (INDIGO Biosciences, State College, Pa., USA; product # IB04001). The RORγ reporter cells are HEK293t cells transfected with one vector that provides high level constitutive expression of a hybrid protein comprised of the yeast Gal4-DNA binding domain fused to the ligand binding domain of human RORγ, and a second vector comprising the firefly luciferase cDNA functionally linked to the upstream activation sequence (UAS) of yeast Gal4. A suspension of RORγ Reporter Cells was prepared using the protocol and culture medium provided in the kit product, and 100 μl of the Reporter Cell suspension was then dispensed into wells of a white, collagen-treated, 96-well assay plate. Concentrated stocks of test compounds were prepared in DMSO, then further diluted using media provided in the kit to generate ‘2×-concentration’ treatment media. 100 μl of medium for each respective treatment concentration dispensed into triplicate assay wells, thereby combining with the reporter cells. All media formulations contained 10% charcoal stripped Fetal Bovine Serum, but are otherwise proprietary to INDIGO Biosciences. Final treatment concentrations for each test compound were 1,000 nM and 100 nM, each with 0.1% residual DMSO. Separate control treatments were media supplemented with vehicle only (0.1% DMSO) to determine the constitutive level of RORγ activity in the reporter cells, and the reference inverse-agonist ursolic acid (f.c. 6,000 nM to 8.2 nM in 3-fold decrements) to establish a positive control inverse-agonist dose response. Assay plates were placed in a 37° C., 5% CO2, 85% humidity incubator for 24 hour. Treatment media were then discarded, 100 μl of luciferase detection reagent was added to each well, and relative light units (RLUs) were quantified from each assay well using a plate reading luminometer. Values of average RLU+/−standard deviation were computed for all treatment sets, followed by the calculations of fold-reduction: [Average RLUVehicle/Average RLUTest Cmpd]. Percent-reduction of RORγ activity in response to respective test compound treatments was calculated: [100*(1−[Ave RLUTest Cmpd/Ave RLUVehicle)] where the theoretical minimum reduction (0% reduction) derives from Vehicle treatment only, no treatment compound. In some aspects it may be of interest to provide compounds with selective modulation of RORγ for example compounds that are selective to RORγ over RORα, compounds that are selective for RORγ versus RORPβ, and compounds that are selective for RORγ versus BOTH RORα and RORPβ. It may also be of interest to provide compounds that are selective for RORγ versus further nuclear hormone receptors such as CAR1, FXR, GR, LXRα, LXRβ, PPARα, PXR, RARα, RXRα, TRα, VDR. It is apparent to those skilled in the art that these nuclear hormone receptors are merely examples, and that selectivity against other nuclear receptors may also be of interest. It may for example be of interest to provide compounds that modulate RORγ and one or more further nuclear hormone receptors, as well as compounds that modulate both RORγ and RORα, or RORγ and RORβ. It may also be of interest to provide compounds that modulate RORγ and BOTH RORα and RORP, as well as compounds that modulate both RORγ and one or more further nuclear hormone receptors such as CAR1, FXR, GR, LXRα, LXRβ, PPARα, PXR, RARα, RXRα, TRα, VDR. It is apparent to those skilled in the art that these nuclear hormone receptors are merely examples, and that modulation of even other nuclear receptors may also be of interest. […]

As a reminder, the IC50 is the concentration that gives 50% inhibition. As usually defined, the inhibition is the percentage by which the read-out fell short of the control. For the compound `Cc1ccc(CNc2ncnc(N(Cc3ccc(C(F)(F)F)cc3)C3CC3)c2F)cn1` [Example A1, N4-cyclopropyl-5-fluoro-N6-[(6-methyl-3-pyridyl)methyl]-N4-[[4-(trifluoromethyl)phenyl]methyl] pyrimidine-4,6-diamine], in test [1], the IC50 is below 1000 nM. In test [2], the inhibition at 1 µM was above 80% and the “Gal4 activity range @ 0.1 μM (% inhibition)” value is above 20 % inhibition.

For `NC(=O)Cc1ccc(CNc2ncnc(N(Cc3ccc(C(F)(F)F)cc3)C3CC3)c2F)cc1` [Example A2, 2-[4-[[[6-[cyclopropyl-[[4-(trifluoromethyl)phenyl]methyl]amino]-5-fluoro-pyrimidin-4-yl]amino]methyl]phenyl]acetamide], the half-inhibitory concentration (IC50) in test [1] was below 500 nM. For the same compound, in test [2], the inhibition at 1 µM is above 80% and the “Gal4 activity range @ 0.1 μM (% inhibition)” value is reported as above 80 % inhibition.

Consider `CC(c1ccc(C(F)(F)F)cc1)N(c1ncnc(NCc2ccc(CC(N)=O)cc2)c1F)C1CC1` (stereo not drawn) [Example A3, 2-[4-[[[6-[cyclopropyl-[1-[4-(trifluoromethyl)phenyl]ethyl]amino]-5-fluoro-pyrimidin-4-yl]amino]methyl]phenyl]acetamide], for which, in test [1], the IC50 was below 500 nM. In addition, in test [2], the inhibition at 1 µM was above 80% and the “Gal4 activity range @ 0.1 μM (% inhibition)” value is given as above 50 % inhibition.

`NC(=O)Cc1ccc(CNc2ncnc(N(Cc3ccc(C(F)(F)F)cc3)C3CCOC3)c2F)cc1` (stereo not drawn) [Example A4, 2-[4-[[[5-fluoro-6-[tetrahydrofuran-3-yl-[[4-(trifluoromethyl)phenyl]methyl]amino]pyrimidin-4-yl]amino]methyl]phenyl]acetamide]: the IC50 in test [1] is below 2000 nM. In test [2], the inhibition at 1 µM is above 50% and the “Gal4 activity range @ 0.1 μM (% inhibition)” value is recorded as above 0 % inhibition.

`OC1(CNc2ncnc(N(Cc3ccc(C(F)(F)F)cc3)C3CC3)c2F)CCOC1` (stereo not drawn) [Example A5, 3-[[[6-[cyclopropyl-[[4-(trifluoromethyl)phenyl]methyl]amino]-5-fluoro-pyrimidin-4-yl]amino]methyl]tetrahydrofuran-3-ol] registered an IC50 in test [1] below 1000 nM. Besides, in test [2], the inhibition at 1 µM was above 80% and the “Gal4 activity range @ 0.1 μM (% inhibition)” value is listed as above 20 % inhibition.

Turning to `NC(=O)Cc1ccc(CNc2ncnc(N(Cc3ccc(OC(F)(F)F)cc3)C3CC3)c2F)cc1` [Example A6, 2-[4-[[[6-[cyclopropyl-[[4-(trifluoromethoxy)phenyl]methyl]amino]-5-fluoro-pyrimidin-4-yl]amino]methyl]phenyl]acetamide], the 50% inhibitory concentration (IC50) in test [1] was below 500 nM. In test [2], the inhibition at 1 µM was above 80% and the “Gal4 activity range @ 0.1 μM (% inhibition)” value is listed as above 80 % inhibition.

For `O=S1(=O)CCC(O)(CNc2ncnc(N(Cc3ccc(C(F)(F)F)cc3)C3CC3)c2F)CC1` [Example A8, 4-[[[6-[cyclopropyl-[[4-(trifluoromethyl)phenyl]methyl]amino]-5-fluoro-pyrimidin-4-yl]amino]methyl]-1,1-dioxo-thian-4-ol], in test [1], the 50% inhibitory concentration (IC50) was below 500 nM. Further, in test [2], the inhibition at 1 µM was above 80% and the “Gal4 activity range @ 0.1 μM (% inhibition)” value is above 50 % inhibition.

On to `O=S(=O)(NC1CC1)c1ccc(CNc2ncnc(N(Cc3ccc(C(F)(F)F)cc3)C3CC3)c2F)cc1` [Example A9, N-cyclopropyl-4-[[[6-[cyclopropyl-[[4-(trifluoromethyl)phenyl]methyl]amino]-5-fluoro-pyrimidin-4-yl]amino]methyl]benzenesulfonamide], for which the IC50 in test [1] is below 500 nM. In test [2], the inhibition at 1 µM was above 80% and the “Gal4 activity range @ 0.1 μM (% inhibition)” value was above 20 % inhibition.

`CC(=O)N1CCC(CNc2ncnc(N(Cc3ccc(C(F)(F)F)cc3)C3CC3)c2F)CC1` [Example A11, 1-[4-[[[6-[cyclopropyl-[[4-(trifluoromethyl)phenyl]methyl]amino]-5-fluoro-pyrimidin-4-yl]amino]methyl]-1-piperidyl]ethanone]: the 50% inhibitory concentration (IC50) in test [1] is below 500 nM. Moreover, in test [2], the inhibition at 1 µM was above 80% and the “Gal4 activity range @ 0.1 μM (% inhibition)” value is above 50 % inhibition.

As to `Fc1c(NCC2CCOCC2)ncnc1N(Cc1ccc(C(F)(F)F)cc1)C1CC1` [Example A12, N4-cyclopropyl-5-fluoro-N6-(tetrahydropyran-4-ylmethyl)-N4-[[4-(trifluoromethyl)phenyl]methyl] pyrimidine-4,6-diamine], the IC50 in test [1] was below 1000 nM. Moreover, in test [2], the inhibition at 1 µM is above 80% and the “Gal4 activity range @ 0.1 μM (% inhibition)” value is above 20 % inhibition.

Compound `NC(=O)Cc1ccc(CNc2ncnc(N(C3CC3)C(c3ccc(C(F)(F)F)cc3)C3CC3)c2F)cc1` (stereo not drawn) [Example A13, 2-[4-[[[6-[cyclopropyl-[cyclopropyl-[4-(trifluoromethyl)phenyl]methyl]amino]-5-fluoro-pyrimidin-4-yl]amino]methyl]phenyl]acetamide] returned an IC50 in test [1] below 500 nM. In addition, in test [2], the inhibition at 1 µM is above 80% and the “Gal4 activity range @ 0.1 μM (% inhibition)” value is reported as above 20 % inhibition.

For the compound `NC(=O)Cc1ccc(CNc2ncnc(N(Cc3ccc(C(F)(F)F)cc3)C3CC3)c2F)nc1` [Example A177, 2-[6-[[[6-[cyclopropyl-[[4-(trifluoromethyl)phenyl]methyl]amino]-5-fluoro-pyrimidin-4-yl]amino]methyl]-3-pyridyl]acetamide], the IC50 in test [1] is below 2000 nM.

`Cc1cc(CN(c2ncnc(NCC3CCN(S(C)(=O)=O)CC3)c2F)C2CCCCC2)n(C)n1` [Example A180, N6-cyclohexyl-N6-[(2,5-dimethylpyrazol-3-yl)methyl]-5-fluoro-N4-[(1-methylsulfonyl-4-piperidyl)methyl]pyrimidine-4,6-diamine]: the IC50 in test [1] is below 10000 nM.

`O=C(O)C[C@H](Nc1ncnc(N(Cc2ccc(C(F)(F)F)cc2)C2CC2)c1F)c1ccccc1` [Example A182, (3S)-3-[[6-[cyclopropyl-[[4-(trifluoromethyl)phenyl]methyl]amino]-5-fluoro-pyrimidin-4-yl]amino]-3-phenyl-propanoic acid] displayed an IC50 in test [1] below 10000 nM.

Turning to `O=C(O)CC1(Nc2ncnc(N(Cc3ccc(C(F)(F)F)cc3)C3CC3)c2F)CCOCC1` [Example A183, 2-[4-[[6-[cyclopropyl-[[4-(trifluoromethyl)phenyl]methyl]amino]-5-fluoro-pyrimidin-4-yl]amino]tetrahydropyran-4-yl]acetic acid], the concentration for half-maximal inhibition (IC50) in test [1] was below 2000 nM.

In test [1], `O=C(O)C(CNc1ncnc(N(Cc2ccc(C(F)(F)F)cc2)C2CC2)c1F)C1CCOCC1` (stereo not drawn) [Example A184, 3-[[6-[cyclopropyl-[[4-(trifluoromethyl)phenyl]methyl]amino]-5-fluoro-pyrimidin-4-yl]amino]-2-tetrahydropyran-4-yl-propanoic acid] returned an IC50 below 10000 nM.

For `O=C(O)C(CNc1ncnc(N(Cc2ccc(C(F)(F)F)cc2)C2CC2)c1F)CC1CCOCC1` (stereo not drawn) [Example A185, 2-[[[6-[cyclopropyl-[[4-(trifluoromethyl)phenyl]methyl]amino]-5-fluoro-pyrimidin-4-yl]amino]methyl]-3-tetrahydropyran-4-yl-propanoic acid], the half-inhibitory concentration (IC50) in test [1] is below 10000 nM.

(Values after patent publication US10683293B2, “Optionally fused heterocyclyl-substituted derivatives of pyrimidine useful for the treatment of inflammatory, metabolic, oncologic and autoimmune diseases” (NUEVOLUTION A/S, priority 2014, dated 2020).)
